Source: patent US6756208B2, “Plasma glucosylceramide deficiency as risk factor for thrombosis and modulator of anticoagulant protein C” (priority 2001, dated 2004)
Entries after “also recorded” stand apart in the source; their conditions may differ.

Experiments:
APC:protein S [1] = assay: Modified dilute prothrombin time clotting assay with glycolipid vesicles added to normal plasma; assay type: biochemical, human; conditions: for effect on APC:protein S anticoagulant response: 0-100 mg/ml; for anticoagulant response of plasma to APC:protein S (clotting time prolongation, modified PT assay): glycolipid vesicles added to normal plasma, APC plus protein S present; for effect on baseline clotting times: without APC or protein S added
Experimental: Anticoagulant response to APC:protein S. Modified dilute prothrombin time based assays were performed as previously described. Briefly, 7.5 μl of test plasma was mixed with fibrinogen (0.6 mg/ml final concentration) and APC (8.7 nM final) plus protein S (28 nM final) or buffer, and incubated 3 min at 37° C. (100 μl total volume). Clotting times were measured after addition of 50 μl of recombinant human tissue factor (Innovin from DADE, Miami, Fla.) diluted 1:40 in Tris (tris[hydroxymethyl] aminomethane)-buffered saline containing 0.5% bovine serum albumin (TBSA) and 30 mM CaCl2. Baseline clotting times without addition of APC:protein S were also determined. For studies of the effects of glycolipid vesicles or glucocerebrosidase treatment on clotting assays, a 1:64 dilution of Innovin was used in the presence or absence of APC and protein S. In the study of the effect of glucocerebrosidase, 13 nM APC and 42 nM protein S were employed.
Preparation of glycolipid vesicles. To prepare extruded glycolipid vesicles, dried glycolipids GlcCer, Gb3Cer, galactosylceramide (GalCer) (Sigma), and LacCer were suspended at 100 μg/ml in TBS at room temperature, vortexed 5 min, and passed through a 0.2 μm filter (Osmonics, Livermore, Calif.). Concentrations of glycolipids recovered after filtration were determined by HPLC analysis as described above.

factor Va [2] = molecular target: T1, factor Va (Homo sapiens, UniProt P12259); assay: Factor Va inactivation by APC/protein S with 1, 5 or 10% glycolipid in PC/PS vesicles (Example 7); assay type: biochemical; conditions: for effect on factor Va inactivation by APC:protein S, glycolipid incorporated into PC/PS vesicles (overall statement): glycolipid content not specified; for enhancement of factor Va inactivation by APC/protein S: APC 0.16 nM, 5 min
T1 construct: APC cleaves the heavy chain of factor Va at Arg506, and then Arg306, and perhaps Arg679
T1 sequence (P12259 29-737 limits assumed): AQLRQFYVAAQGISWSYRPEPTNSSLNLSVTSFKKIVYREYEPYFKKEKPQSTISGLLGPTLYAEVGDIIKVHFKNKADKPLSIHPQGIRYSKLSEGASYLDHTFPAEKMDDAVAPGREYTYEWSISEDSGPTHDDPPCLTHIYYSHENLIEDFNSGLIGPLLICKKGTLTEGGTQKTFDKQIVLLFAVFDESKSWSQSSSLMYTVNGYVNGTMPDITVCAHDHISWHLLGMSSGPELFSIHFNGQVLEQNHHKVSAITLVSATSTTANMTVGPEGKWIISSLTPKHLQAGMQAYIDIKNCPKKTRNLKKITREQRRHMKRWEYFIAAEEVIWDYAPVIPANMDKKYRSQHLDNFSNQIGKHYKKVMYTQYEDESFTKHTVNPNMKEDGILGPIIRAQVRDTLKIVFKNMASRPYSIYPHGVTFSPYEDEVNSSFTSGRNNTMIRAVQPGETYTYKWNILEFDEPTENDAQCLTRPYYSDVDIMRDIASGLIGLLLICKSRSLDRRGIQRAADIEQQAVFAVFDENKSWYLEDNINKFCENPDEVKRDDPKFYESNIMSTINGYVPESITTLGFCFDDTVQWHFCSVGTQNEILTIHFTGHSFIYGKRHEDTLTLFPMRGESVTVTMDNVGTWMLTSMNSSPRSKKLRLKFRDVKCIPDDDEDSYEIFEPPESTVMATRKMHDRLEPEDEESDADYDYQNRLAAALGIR
T1 sequence (P12259 1574-2224 limits assumed): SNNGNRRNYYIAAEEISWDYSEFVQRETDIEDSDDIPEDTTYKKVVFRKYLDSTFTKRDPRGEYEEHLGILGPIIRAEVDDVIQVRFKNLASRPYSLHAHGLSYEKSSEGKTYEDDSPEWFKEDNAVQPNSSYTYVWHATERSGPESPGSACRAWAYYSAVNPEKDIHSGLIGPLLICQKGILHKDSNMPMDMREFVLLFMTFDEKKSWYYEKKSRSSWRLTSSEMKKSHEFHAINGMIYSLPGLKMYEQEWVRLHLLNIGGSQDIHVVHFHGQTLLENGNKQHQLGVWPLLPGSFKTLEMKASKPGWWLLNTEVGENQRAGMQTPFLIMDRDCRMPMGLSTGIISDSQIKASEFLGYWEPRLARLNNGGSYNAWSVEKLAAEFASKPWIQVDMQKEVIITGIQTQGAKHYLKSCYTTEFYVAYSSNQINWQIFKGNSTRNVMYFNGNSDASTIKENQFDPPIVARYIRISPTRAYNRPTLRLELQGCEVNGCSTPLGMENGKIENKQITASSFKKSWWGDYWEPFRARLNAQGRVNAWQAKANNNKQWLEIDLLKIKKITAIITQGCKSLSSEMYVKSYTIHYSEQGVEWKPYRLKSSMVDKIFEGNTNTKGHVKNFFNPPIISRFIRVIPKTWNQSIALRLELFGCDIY
Experimental: FIGS. 6A-6E. Anticoagulant response of plasma to APC/protein S is enhanced by addition of glycolipids. Purified factor Va (1.5 nM) was incubated with APC (0.16 nM final)/protein S (18 nM final) and varying lipid vesicles to allow factor Va inactivation for five minutes and then the residual factor Va activity was determined using prothrombin time clotting assays.
Purified factor Va (1.5 nM) was incubated with APC (0.16 nM final)/protein S (18 nM final) and varying lipids vesicles to allow factor Va inactivation for 5 min., and then the residual factor Va activity was determined using prothrombin time clotting assays.

APC:protein S [3] = assay: Factor Xa-1-stage clotting assays without addition of exogenous lipids; assay type: biochemical; conditions: presence versus absence of APC:protein S; data not shown
factor Va [4] = molecular target: T1, factor Va; assay: Factor Va inactivation assay with purified proteins (GlcCer vesicles and multicomponent PC/PS/GlcCer vesicles); assay type: biochemical
Experimental: Large unilamellar multicomponent vesicles were prepared generally as described. (27) Appropriate aliquots of PC, PS and GlcCer were mixed and dried under nitrogen. The lipid mixture was hydrated at a concentration of 6.25 mM lipid in TBS and freeze-thawed 10 times using liquid nitrogen, and the solution of vesicles was passed 15 times through a 0.2 μm filter (Millipore). Concentrations of glycolipid recovered after filtration were determined by HPLC analysis as described above. PC concentration was determined by an enzymatic […] method (Phospholipids B kit, Wako Chemical USA, Inc., Richmond, Va.).
Factor Va inactivation assay. To study the time course of factor Va inactivation by APC:protein S, mixtures containing GlcCer vesicles or control PC vesicles (21.5 μM) or buffer, APC (6 nM final), protein S (18 nM final), and factor Va (1.5 nM) with 5 mM CaCl2 were incubated at 37° C. Aliquots were withdrawn at various times and the reaction was quenched by adding ethylenediamine tetraacetic acid (EDTA) prior to determination of residual factor Va activity. […] The residual factor Va activity was quantitated using prothrombin time clotting assays and standard log-log calibration curves of clotting time versus factor Va concentration generated using purified factor Va and factor V deficient plasma. […]

[5] = 1% glycolipid in PC/PS vesicles
[6] = 5% glycolipid in PC/PS vesicles
[7] = 10% glycolipid in PC/PS vesicles

Compound: ceramide [reference compound]
- effect on APC:protein S anticoagulant response (APC:protein S [1]; data not shown): Neither D-Glc alone nor ceramide alone (0-100 mg/ml) affected
- anticoagulant response of plasma to APC:protein S (clotting time prolongation, modified PT assay) (APC:protein S [1]): neither D-Glc alone nor ceramide alone was anticoagulantly active

Compound: globotetraosylceramide [Gb4Cer]
- effect on factor Va inactivation by APC:protein S, glycolipid incorporated into PC/PS vesicles (overall statement) (factor Va [2]): much weaker effect

Compound: OC[C@H]1OC(O)[C@H](O)[C@@H](O)[C@@H]1O (stereo partly drawn) [D-Glc, reference compound]
- effect on APC:protein S anticoagulant response (APC:protein S [1]; data not shown): Neither D-Glc alone nor ceramide alone (0-100 mg/ml) affected
- anticoagulant response of plasma to APC:protein S (clotting time prolongation, modified PT assay) (APC:protein S [1]): neither D-Glc alone nor ceramide alone was anticoagulantly active

Compound: galactosylceramide [GalCer]
- anticoagulant response of plasma to APC:protein S (clotting time prolongation, modified PT assay) (APC:protein S [1]): did not enhance APC:protein S action; also recorded: inactive
- effect on baseline clotting times (APC:protein S [1]): no effect on baseline clotting times
- enhancement of factor Va inactivation (factor Va [2]; above 10 μg/ml of total lipid, 5 and 10% glycolipid in PC/PS vesicles): enhanced factor Va inactivation by APC/protein C like GlcCer in PC/PS vesicle
- effect on factor Va inactivation compared with GlcCer in PC/PS (factor Va [2]; below 10 μg/ml): not as well as GlcCer in PC/PS
- effect on factor Va inactivation by APC:protein S, glycolipid incorporated into PC/PS vesicles (overall statement) (factor Va [2]): significantly directly enhance inactivation

Compound: glucosylceramide [GlcCer]
- clotting time prolongation, modified PT assay (APC:protein S [1]; APC alone added without protein S): much less clotting time prolongation
- anticoagulant response of plasma to APC:protein S (clotting time prolongation, modified PT assay) (APC:protein S [1]): dose-dependent marked prolongation; also recorded: dose-dependently enhances the anticoagulant response; also recorded: dose-dependently enhanced this anticoagulant response; also recorded: very active
- effect on clotting times, modified PT assay (APC:protein S [1]; protein S alone added in the absence of APC, data not shown): no effect on clotting times
- effect on baseline clotting times (APC:protein S [1]): without affecting baseline clotting time
- clotting time prolongation in factor Xa-1-stage assays (APC:protein S [3]): clotting time prolongation in the presence but not absence of APC:protein S
- inactivation of purified factor Va by APC:protein S (overall statement) (factor Va [4]): directly enhanced inactivation of purified factor Va; also recorded: enhances factor Va inactivation
- enhancement of factor Va inactivation by APC/protein S (factor Va [2]; [5]): little enhancement effect
- factor Va inactivation reached (factor Va [2]; [6]): up to 60%
- enhancement of factor Va inactivation by APC/protein S (factor Va [2]; [6]): enhanced inactivation of factor Va much more
- concentration from which the enhancement effect was observed (factor Va [2]; 5 and 10% GlcCer in PC/PS vesicle): ≥ 1 µg/mL
- factor Va inactivation reached (factor Va [2]; [7]): up to 60%
- enhancement of factor Va inactivation by APC/protein S (factor Va [2]; [7]): enhanced inactivation of factor Va much more
- effect on factor Va inactivation by APC:protein S, glycolipid incorporated into PC/PS vesicles (overall statement) (factor Va [2]): significantly directly enhance inactivation

Compound: globotriaosylceramide [Gb3Cer]
- anticoagulant response of plasma to APC:protein S (clotting time prolongation, modified PT assay) (APC:protein S [1]): activity very similar to GlcCer; also recorded: approximately equally active; also recorded: enhanced
- enhancement of factor Va inactivation by APC/protein S (factor Va [2]; [5]): enhanced inactivation of factor Va significantly even at 1 μg/ml
- enhancement of factor Va inactivation by APC/protein S (factor Va [2]; [6]): enhanced much more
- effect on factor Va inactivation by APC:protein S, glycolipid incorporated into PC/PS vesicles (overall statement) (factor Va [2]): significantly directly enhance inactivation

Compound: lactosylceramide [LacCer]
- anticoagulant response of plasma to APC:protein S (clotting time prolongation, modified PT assay) (APC:protein S [1]): much lower activity; also recorded: does not possess this anticoagulant property
- enhancement of factor Va inactivation by APC/protein S (factor Va [2]; [5]): little like GlcCer
- factor Va inactivation reached (factor Va [2]; [7]): up to 90%
- enhancement of factor Va inactivation by APC/protein S (factor Va [2]; [7]): dramatically enhanced factor Va inactivation
- effect on factor Va inactivation by APC:protein S, glycolipid incorporated into PC/PS vesicles (overall statement) (factor Va [2]): significantly directly enhance inactivation
